Assay results reported in publication PMC4389443 (Respiratory Research, 2015).
Where two headings read alike, the source gives them in different places.

Columns and labels:
Plasma stability [1] = format: in vitro ADME; settings: dog plasma, 1 hour incubation
[2] = Pharmacokinetics in Wistar rats; format: in vivo; settings: rat; for Cmax: read-out: Apparent concentration at curve maximum Cmax
Procedure: Studies were performed by ICP Firefly, Pharmalegacy and Sundia with local ethics approval. […] Plasma was analyzed for PXS-4728A by high-performance liquid chromatography-mass spectrometry/mass spectrometry. Basic pharmacokinetic parameters were estimated using PK Solutions software (Summit Research Services).

HepG2 cells = assay: Cell toxicity in HepG2 cells; format: cell-based; settings: highest concentration tested 100 μM
Plasma stability [3] = format: in vitro ADME; settings: rat plasma, 1 hour incubation

With `CC(C)(C)NC(=O)c1ccc(OC/C(=C/F)CN)cc1` [PXS-4728A] the “Plasma stability, remaining” value (Plasma stability [1]) was over 90%, the Cmax ([2]; Wistar, plasma, intravenous 3 mg.kg^−1) was 4210 ng/mL and the clearance ([2]; Wistar, plasma, intravenous 3 mg.kg^−1, read-out: Clearance CL) was 23 mL/min/kg. It also gave a Cmax ([2]; Wistar, plasma, oral 6 mg.kg^−1) of 720 ng/mL, a Tmax ([2]; Wistar, plasma, oral 6 mg.kg^−1, read-out: Time of maximal concentration Tmax) of 49.8 min and a half-life ([2]; Wistar, plasma, iv, 3 mg/kg, intravenous 3 mg.kg^−1, read-out: Apparent half-life, t1/2 (converted)) of about 60 min. The bioavailability ([2]; Wistar, plasma, oral, 6 mg.kg^−1, rat, oral 6 mg.kg^−1 / i.v. 3 mg.kg^−1) was over 55%, the “Clearance CL” value ([2]; oral 6 mg.kg^−1) was 45 mL·kg/min and the “Bioavailability (%)” value ([2]; oral 6 mg.kg^−1 / i.v. 3 mg.kg^−1) was 55%. The Cell toxicity (HepG2 cells) was “does not induce cell toxicity” and the “Plasma stability, remaining” value (Plasma stability [3]) was over 90%.
